# Assays:
# [1] = system: primary cultured guinea-pig urinary bladder (GPB) cells; experiment: Membrane hyperpolarization (MHP) assay, DiBAC(4)3 / FLIPR; format: cell-based; settings: Cavia porcellus; for EC50: concentration that elicits 50% of the maximal response for the test sample; for Emax: maximal steady-state hyperpolarization, normalized to response with 10 μM P1075 (100%)
# Outline: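 Primary smooth-muscle cells from male guinea-pig bladder, grown to confluence, loaded 30 min at 37° C with 5 μM DiBAC(4)3 in HEPES buffer pH 7.4. Fluorescence drop on FLIPR followed 25 min after compound; steady-state hyperpolarization normalized to 10 μM P1075 (100%), EC50 from four-parameter fit of five concentrations.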
# [2] = system: tissue strips obtained from Landrace pig bladders; experiment: Functional potassium channel opening activity in isolated bladder strips (field-stimulated twitch); settings: for Index: ED50 for P1075 divided by ED50 for the test agonist in a given tissue, averaged; for EC50 / Emax: Sus scrofa; for EC50: amount of agent necessary to cause 50% of the agent's maximal response, read-out: ED50 (the source's name); for Emax: maximal efficacy relative to P1075, field stimulation 0.05 Hz, 0.5 ms, 20 volts
# Outline: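 Mucosa-free female Landrace pig bladder strips in Krebs Ringer bicarbonate (pH 7.4, 37° C., 0.004 mM propranolol), 1.0 g preload, field-stimulated at 0.05 Hz, 0.5 ms, 20 V for twitch. Cumulative concentration-response curves; maximal efficacy as % of P1075, ED50 fitted, potency index = P1075 ED50/test ED50 per tissue, averaged.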
Structure (SMILES),melting point,further results
"Cc1ccc(C(=O)NC(NC(=S)Nc2ccccc2C)C(F)(F)F)cc1 (centres unmarked) [Example 2, 4-methyl-N-{2,2,2-trifluoro-1-[(2-toluidinocarbothioyl)amino]ethyl}benzamide]",210 to 211 °C,
"Cc1ccc(C(=O)N[C@@H](COC(C)(C)C)NC(=S)Nc2cccc([N+](=O)[O-])c2)cc1 [Example 31, N-((1R)-2-(tert-butoxy)-1-{[(3-nitroanilino)carbothioyl]amino}ethyl)-4-methylbenzamide]",169 to 171 °C,
"Cc1ccc(C(=O)NC(NC(=NC#N)Nc2cccc(F)c2)C(C)(C)C)cc1 (centres unmarked) [Example 53, N-(1-{[(cyanoimino)(3-fluoroanilino)methyl]amino}-2,2-dimethylpropyl)-4-methylbenzamide]",193 to 194 °C,
"N#CN=C(Nc1cccnc1)NC(NC(=O)c1ccc(Cl)cc1)C1CC1 (centres unmarked) [Example 54, 4-chloro-N-[{[(cyanoimino)(3-pyridinylamino)methyl]amino}(cyclopropyl)methyl]benzamide]",137 to 139 °C,
"Cc1ccc(C(=O)NC(NC(=NC#N)Nc2ccc(Cl)nc2)C(C)(C)C)cc1 (centres unmarked) [Example 55, N-(1-{[[(6-chloro-3-pyridinyl)amino](cyanoimino)methyl]amino}-2,2-dimethylpropyl)-4-methylbenzamide]",194 to 196 °C,
"N#CN=C(Nc1cccc(F)c1)NC(NC(=O)c1ccc(Cl)cc1)c1ccsc1 (centres unmarked) [Example 56, 4-chloro-N-[{[(cyanoimino)(3-fluoroanilino)methyl]amino}(3-thienyl)methyl]benzamide]",166 to 168 °C,
"CC(C)(C)C(NC(=O)c1ccc(Cl)cc1)NC(=NC#N)Nc1ccccc1F (centres unmarked) [Example 69, 4-chloro-N-(1-{[(cyanoimino)(2-fluoroanilino)methyl]amino}-2,2-dimethylpropyl)benzamide]",208 to 209 °C,
"CC(C)(C)C(NC(=O)c1ccc(Cl)cc1)NC(=NC#N)Nc1cccc(C(F)(F)F)c1 (centres unmarked) [Example 71, 4-chloro-N-[1-({(cyanoimino)[3-(trifluoromethyl)anilino]methyl}amino)-2,2-dimethylpropyl]benzamide]",184 to 186 °C,
"CC(C)(C)C(NC(=O)c1ccc(Cl)cc1)NC(=NC#N)Nc1cc(F)cc(F)c1 (centres unmarked) [Example 72, 4-chloro-N-(1-{[(cyanoimino)(3,5-difluoroanilino)methyl]amino}-2,2-dimethylpropyl)benzamide]",196 to 198 °C,
"CC(C)(C)C(NC(=O)c1ccc(Cl)cc1)NC(=NC#N)Nc1cc(F)ccc1F (centres unmarked) [Example 73, 4-chloro-N-(1-{[(cyanoimino)(2,5-difluoroanilino)methyl]amino}-2,2-dimethylpropyl)benzamide]",196 to 198 °C,
"CC(C)(C)C(NC(=O)c1ccc(Cl)cc1)NC(=NC#N)Nc1c(F)cccc1F (centres unmarked) [Example 74, 4-chloro-N-(1-{[(cyanoimino)(2,6-difluoroanilino)methyl]amino}-2,2-dimethylpropyl)benzamide]",211 to 213 °C,
"CC(C)(C)C(NC(=O)c1ccc(Cl)cc1)NC(=NC#N)Nc1cccc(Cl)c1 (centres unmarked) [Example 75, 4-chloro-N-(1-{[(cyanoimino)(3-chloroanilino)methyl]amino}-2,2-dimethylpropyl)benzamide]",158 to 160 °C,
"COc1cccc(NC(=NC#N)NC(NC(=O)c2ccc(Cl)cc2)C(C)(C)C)c1 (centres unmarked) [Example 76, 4-chloro-N-(1-{[(cyanoimino)(3-methoxyanilino)methyl]amino}-2,2-dimethylpropyl)benzamide]",173 to 175 °C,
"CC(C)(C)C(NC(=O)c1ccc(Cl)cc1)NC(=NC#N)NCc1ccccc1Cl (centres unmarked) [Example 77, 4-chloro-N-(1-{[[(2-chlorobenzyl)amino](cyanoimino)methyl]amino}-2,2-dimethylpropyl)benzamide]",180 to 182 °C,
"CC(C)(C)C(NC(=O)c1ccc(Cl)cc1)NC(=NC#N)NCc1cccc(Cl)c1 (centres unmarked) [Example 78, 4-chloro-N-(1-{[[(3-chlorobenzyl)amino](cyanoimino)methyl]amino}-2,2-dimethylpropyl)benzamide]",178 to 180 °C,
"CC(C)(C)C(NC(=O)c1ccc(Cl)cc1)NC(=NC#N)NCc1ccc(Cl)cc1 (centres unmarked) [Example 79, 4-chloro-N-(1-{[[(4-chlorobenzyl)amino](cyanoimino)methyl]amino}-2,2-dimethylpropyl)benzamide]",173 to 175 °C,
"CC(C)(C)C(NC(=O)c1ccc(Cl)cc1)NC(=NC#N)NCc1cccnc1 (centres unmarked) [Example 80, 4-chloro-N-[1-({(cyanoimino)[(3-pyridinylmethyl)amino]methyl}amino)-2,2-dimethylpropyl]benzamide]",188 to 189 °C,
"CC(C)(C)C(NC(=O)c1ccc(Cl)cc1)NC(=NC#N)NCc1ccncc1 (centres unmarked) [Example 81, 4-chloro-N-[1-({(cyanoimino)[(4-pyridinylmethyl)amino]methyl}amino)-2,2-dimethylpropyl]benzamide]",189 to 191 °C,
"CC(C)(C)C(NC(=O)c1ccc(Cl)cc1)NC(=NC#N)NCc1ccccn1 (centres unmarked) [Example 82, 4-chloro-N-[1-({(cyanoimino)[(2-pyridinylmethyl)amino]methyl}amino)-2,2-dimethylpropyl]benzamide]",184 to 185 °C,
"CC(C)(C)C(NC(=O)c1ccc(F)cc1)NC(=NC#N)Nc1cccnc1 (centres unmarked) [Example 107, N-(1-{[(cyanoimino)(3-pyridinylamino)methyl]amino}-2,2-dimethylpropyl)-4-fluorobenzamide]",195 to 196 °C,
"CN(C(=NC#N)Nc1cccnc1)C(NC(=O)c1ccc(Cl)cc1)C(C)(C)C (centres unmarked) [Example 111, 4-chloro-N-{1-[[(cyanoimino)(3-pyridinylamino)methyl](methyl)amino]-2,2-dimethylpropyl}benzamide]",127 to 129 °C,
"N#CN=C(Nc1cccnc1)NC(NC(=O)c1ccc(I)cc1)C(Cl)(Cl)Cl (centres unmarked) [Example 114, 4-iodo-N-(2,2,2-trichloro-1-{[(cyanoimino)(3-pyridinylamino)methyl]amino}ethyl)benzamide]",208 to 210 °C,
"CCCC(Cl)(Cl)C(NC(=O)c1ccc(Cl)cc1)NC(=NC#N)Nc1cccnc1 (centres unmarked) [Example 115, 4-chloro-N-(2,2-dichloro-1-{[(cyanoimino)(3-pyridinylamino)methyl]amino}pentyl)benzamide]",192 to 193 °C,
"C=CC(C)(C)CC(NC(=O)c1ccc(Cl)cc1)NC(=N[N+](=O)[O-])Nc1cccnc1 (centres unmarked) [Example 133, 4-chloro-N-(1-{[(nitroimino)(3-pyridinylamino)methyl]amino}-3,3-dimethyl-4-pentenyl)benzamide]",,EC50 [1]: 39 nM; Emax [1]: 106%; Index [2]: 0.039; EC50 [2]: 8400 nM; Emax [2]: 58%
"O=C(NC(NC(=S)Nc1cccnc1)C(Cl)(Cl)Cl)c1ccc(I)cc1 (centres unmarked) [Example 148, 4-iodo-N-(2,2,2-trichloro-1-{[(3-pyridinylamino)carbothioyl]amino}ethyl)benzamide]",,EC50 [1]: 96 nM; Emax [1]: 61%; Index [2]: 0.082; EC50 [2]: 1100 nM; Emax [2]: 78%
"O=C(CCc1ccccc1)NC(NC(=S)Nc1cccc([N+](=O)[O-])c1)C(Cl)(Cl)Cl (centres unmarked) [Example 149, 3-phenyl-N-(2,2,2-trichloro-1-{[(3-nitroanilino)carbothioyl]amino}ethyl)propanamide]",,EC50 [1]: 84 nM; Emax [1]: 129%; Index [2]: 0.076; EC50 [2]: 2400 nM; Emax [2]: 95%

# Source: US20020028836A1, “Potassium channel openers” (priority 2000, published 2002)
